Test results published in paper PMC12264943, “Identification of New Human P2X7 Antagonists Using Ligand- and Structure-Based Virtual Screening” (Journal of Chemical Information and Modeling, 2025).
“Also recorded” adds a separate entry of the source.

Columns and labels:
Format in all cases: cell-based
[1] = biological target: T1, hP2X7 (Homo sapiens, UniProt Q99572); test: YO-PRO 1 dye uptake assay, 1321 N1 cells stably transfected with hP2X7; settings: for activity in YO-PRO 1 dye uptake screen / reduction of P2X7 activation: compound 30 μM, 700 μM ATP; for reduction of P2X7 activation: 0.3% DMSO
T1 construct: expressed in transfected cells; host or cells: HEK-293, stably transfected (gift of E. Adinolfi's group, Ferrara University)
T1 sequence (Q99572 1-595): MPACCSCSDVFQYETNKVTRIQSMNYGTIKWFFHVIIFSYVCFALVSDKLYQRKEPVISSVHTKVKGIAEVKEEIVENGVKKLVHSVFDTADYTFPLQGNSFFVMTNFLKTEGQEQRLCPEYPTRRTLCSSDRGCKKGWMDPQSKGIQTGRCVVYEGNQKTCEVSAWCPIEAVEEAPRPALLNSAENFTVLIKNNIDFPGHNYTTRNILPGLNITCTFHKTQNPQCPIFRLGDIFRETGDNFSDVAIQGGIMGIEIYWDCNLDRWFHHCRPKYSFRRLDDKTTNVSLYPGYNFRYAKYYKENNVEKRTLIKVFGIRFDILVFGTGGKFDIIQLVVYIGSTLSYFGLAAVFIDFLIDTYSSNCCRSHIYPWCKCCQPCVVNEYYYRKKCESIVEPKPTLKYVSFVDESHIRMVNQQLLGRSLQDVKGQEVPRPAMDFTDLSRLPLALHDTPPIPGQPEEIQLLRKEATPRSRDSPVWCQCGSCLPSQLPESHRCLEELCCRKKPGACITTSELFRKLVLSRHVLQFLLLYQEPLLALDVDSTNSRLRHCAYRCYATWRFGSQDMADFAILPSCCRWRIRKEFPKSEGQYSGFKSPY
Procedure: (§1) Astrocytoma 1321 N1 (established by Dr. Gaia Pasqualetto) and HEK-293 (kindly gifted by E. Adinolfi’s group, Ferrara University) both stably transfected with hP2X7, were used to assess the activity of the small molecules selected from the VS. Cells were maintained in DMEM:F12 (PanBiotech) supplemented with 10% FBS, 1% pen-strep, and 150 μg/mL G418 (PanBiotech).
Astrocytoma 1321 N1 cells (2–2.5 × 10^4 cells/well) and HEK-293 cells (4–5 × 10^4 cells/well) expressing hP2X7 were seeded in poly-L-lysine-coated 96-well plates (Sarstedt) 24 h before the experiment. YO-PRO 1 dye was prepared at 5 μM in extracellular solution with low divalent cations (ECS-LD) buffer (147 mM NaCl, 10 mM HEPES, 13 mM glucose, 0.2 mM CaCl2, 2 mM KCl, pH 7.4) and added to cells after washing them with Dulbecco’s phosphate- buffered saline (DPBS) (PanBiotech) and incubated for 20 min at 37 °C. ATP-induced dye uptake, mediated by hP2X7 activation, was monitored using a Clariostar plate reader (excitation: 485 nm; emission: 538 nm) for 30 cycles (75–150 s/cycle), after recording the baseline for five cycles. hP2X7 activation was quantified at cycle 10 by calculating the fluorescence intensity (FI) ratio (Δ(Fcycle 10–F cycle 1)/cycle time).
The P2X7 receptor, besides being a ligand-gated ion channel, forms large membrane pores following prolonged exposure to high concentrations of ATP, leading to apoptosis (Mackenzie et al. 2005). The YO-PRO 1 dye uptake assay, which measures dye influx through these pores, was selected as the primary screen. The fluorescence of YO-PRO 1 increases when it binds to DNA, enabling real-time monitoring of P2X7 activation (calculated as the rate of increase in fluorescence as YO-PRO 1 binds nuclear DNA).
The screening compounds were tested at 30 μM (0.3% DMSO) in 5 μM YO-PRO 1 dye diluted in freshly prepared ECS-LD buffer. Cells pretreated with the screening compounds were challenged with 700 μM ATP, and the fluorescence intensities were recorded. The negative control consisted of cells treated with 0.3% DMSO, while the positive control was 0.1 μM JNJ47965567, a selective P2X7 antagonist. ,
(§2) 2 Initial screening assays to identify hit compounds. (A) The compounds were screened at 30 μM in the YO-PRO 1 dye uptake using 1321 N1 cells stably transfected with hP2X7. Compound activity was evaluated along a time of 20 min (75 s per cycle) after ATP addition (700 μM). The fluorescence intensity (FI) values of the first 10 cycles were considered for assessing their ability to inhibit hP2X7. Compound responses were normalized to the fluorescent signal recorded on 0.3% DMSO cells treated with 700 μM ATP of each plate. […] (B) Compounds screened at 10 μM using MPR using 1321 N1 cells stably transfected with hP2X7. The compound activity was evaluated for 5 min after ATP addition (15 s per cycle). The fluorescence intensity recorded in the first cycles (before reaching a plateau response) was considered for assessing the small molecule’s ability to inhibit hP2X7. Compound responses were normalized to the fluorescence signal recorded on 0.1% DMSO cells treated with 700 μM ATP of each plate. […] One-way ANOVA and Dunnet test were used for statistical analysis (****P < 0.0001), (*P < 0.02).

[2] = biological target: T1, hP2X7; test: Membrane Potential Red (MPR) dye assay, 1321 N1 cells stably transfected with hP2X7
Procedure: as §1
Cells were plated as described for the YO-PRO 1 dye uptake assay. MPR dye (Molecular Devices) was prepared following the manufacturer’s protocol and diluted 1:10 in ECS-LD buffer. After washing with DPBS, cells were incubated with the dye for 30 min at 37 °C. Fluorescence changes (excitation: 525 nm; emission: 560 nm) were recorded using a Clariostar plate reader during ATP-induced membrane depolarization. Baseline fluorescence was recorded for 5 cycles, and ATP was added via an automated injector (10 μL). Membrane depolarization was quantified as the ratio of the maximal fluorescence change over baseline intensity (Δ(F max–F0)/F0)).
as §2, with “0.02). […]” for “0.02).”

[3] = biological target: T1, hP2X7; test: as above; settings: compound 10 μM, 700 μM ATP

Structure (SMILES)	Hill Slope of ATP concentration-response curve ([1]; YO-PRO 1 uptake, 1321 N1 hP2X7 cells)	EC50 ([1]; YO-PRO 1 uptake, 1321 N1 hP2X7 cells, ATP 1 μM to 10 mM)	EC50 ([2]; MPR assay, red dye, 1321 N1 hP2X7 cells, one biological replicate, read-out: ATP EC50)	activity in YO-PRO 1 dye uptake screen [1]	reduction of P2X7 activation [1]	activity in MPR screen, hP2X7-induced membrane depolarization [3]	statistically significant inhibition, % of control, initial MPR screen ([2]; compound 10 μM, 700 μM ATP)
Nc1ncnc2c1ncn2[C@@H]1O[C@H](COP(=O)(O)OP(=O)(O)OP(=O)(O)O)[C@@H](O)[C@H]1O [ATP, reference compound]	1.161	697 ± 203 µM	679 µM				
O=C(NCCc1ccccc1)NC(Cc1ccc2c(c1)OCO2)Cc1ccc2c(c1)OCO2 [Compound 2]				antagonist activity	at least 50%	active; also recorded: statistically inhibited	
O=C(CSc1ccccc1C(=O)Nc1ccnn1Cc1cccnc1)Nc1ccc2c(c1)OCO2 [Compound 9]				antagonist activity	at least 50%	active; also recorded: statistically inhibited	65 % of control
